According to US9133212B1, “Inhibitors of hemeprotein-catalyzed lipid peroxidation” (Vanderbilt University, priority 2005, dated 2015):
Like-named read-outs stand apart in the source and are kept apart here.

What was measured:
[1] = molecular target: T1, ferryl myoglobin (Homo sapiens, UniProt P02144); assay: Reduction of ferryl myoglobin to ferric myoglobin; assay type: biochemical
T1 sequence (P02144 1-154): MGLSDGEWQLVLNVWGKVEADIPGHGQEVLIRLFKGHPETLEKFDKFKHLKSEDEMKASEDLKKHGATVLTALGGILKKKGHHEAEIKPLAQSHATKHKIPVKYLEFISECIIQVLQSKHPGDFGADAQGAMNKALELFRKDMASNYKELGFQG
Procedure: Ferryl myoglobin was generated by incubating ferric myoglobin 10 μM in PBS with 10 μM hydrogen peroxide until there was no more change in the peak at 421 nm. At this time, the analogs were added to the cuvette at the final concentrations indicated and spectra were recorded every 15 sec for 2 min. The initial rate of reduction was calculated as the variation of absorbance at 409 nm in the first two minutes after adding the analogs. In this period of time the rates of reduction were linear for each concentration of analog.

[2] = molecular target: PGHS-1 (COX-1) (Homo sapiens, UniProt P23219); assay: Inhibition of PGHS-1 (COX-1), [14C]arachidonic acid oxidation; assay type: biochemical; settings: for IC50: in vitro system
Procedure: At this time the reaction was initiated by addition of 0.5 μM of [14C]arachidonic acid. After 8 seconds, the reaction was stopped by adding an ice cold mixture of diethyl ether/methanol/4.0 M citric acid. PGHS-1 activity was expressed as percent oxidation of arachidonic acid compared with control where no inhibitor was added. Each data point represents the mean±S.E.M of six values.
(§1) Hematin-reconstituted COX-1 (5.4 nM) or COX-2 (10.8 nM) in Tris HCl 100 mM, pH 8.0, 500 μM phenol, was pre-incubated with N-dimethyl pyrimidinol (DM, plain line) or N-dimethyl pyridinol (DR, dashed line) at varying concentrations at 37° C. for 20 minutes. At this time the reaction was initiated by addition of 0.5 μM of [14C] arachidonic acid. After 8 seconds, the reaction was stopped by adding an ice cold mixture of diethyl ether/methanol/4.0 M citric acid. PGHS-1 activity was expressed as percent oxidation of arachidonic acid compared with control where no inhibitor was added. Each data point represents the mean±S.E.M of six values.

[3] = molecular target: T2, PGHS-2 (COX-2) (Homo sapiens, UniProt P35354); assay: Inhibition of PGHS-2 (COX-2), [14C]arachidonic acid oxidation; assay type: biochemical; settings: for inhibition of PGHS-2 (COX-2), in words: compared with its PGHS-1 inhibition
T2 sequence (P35354 18-604): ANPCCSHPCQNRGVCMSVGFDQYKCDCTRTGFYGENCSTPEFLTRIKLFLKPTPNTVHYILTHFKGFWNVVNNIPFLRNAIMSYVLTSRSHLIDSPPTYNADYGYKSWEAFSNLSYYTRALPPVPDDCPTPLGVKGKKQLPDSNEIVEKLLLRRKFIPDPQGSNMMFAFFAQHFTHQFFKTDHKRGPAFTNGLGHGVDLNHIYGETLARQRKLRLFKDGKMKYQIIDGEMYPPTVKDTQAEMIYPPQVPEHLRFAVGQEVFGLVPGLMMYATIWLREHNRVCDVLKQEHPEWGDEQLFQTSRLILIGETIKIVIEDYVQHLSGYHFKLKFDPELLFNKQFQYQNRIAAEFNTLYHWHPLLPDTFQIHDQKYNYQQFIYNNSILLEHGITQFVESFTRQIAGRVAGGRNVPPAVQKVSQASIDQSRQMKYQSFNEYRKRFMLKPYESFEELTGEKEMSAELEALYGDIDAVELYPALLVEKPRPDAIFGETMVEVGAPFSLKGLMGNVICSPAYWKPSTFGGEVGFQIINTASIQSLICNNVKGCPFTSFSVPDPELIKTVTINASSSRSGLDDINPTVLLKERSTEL
Procedure: as §1

[4] = test system: HepG2 liver cell line
Procedure: HepG2 were plated in multiple 96-well plates at 2×10^4 cells per well and pretreated with ethanol 100 μM for 2 hours. […] Cell viability after 24 h was determined by measuring ATP levels by luminescence assay.

[5] = test system: HepG2 cells; assay: Direct cellular toxicity (total cellular ATP levels); assay type: cell-based; settings: Homo sapiens, concentration causing a 50% decrease in total cellular ATP levels, read-out: Cellular Toxicity (EC50, μM ± SD)
Description: Microsomal stability is expressed as % of unmodified compound remaining after reaction. Cellular toxicity is expressed as the con-centration causing a 50% decrease in total cellular ATP levels. Values represent means±S.E.M.

[6] = molecular target: T3, myoglobin (Mb) (Homo sapiens, UniProt P02144); assay: Inhibition of myoglobin-induced arachidonic acid oxidation; assay type: biochemical
T3 sequence (P02144 1-154): T1 sequence (P02144 1-154)
Procedure: (§2) The inhibition of the lipid peroxidation produced by myoglobin (Mb) and COX-1 by the different analogs was tested. Values represent the IC50 for each hemeprotein and are expressed as means±S.E.M. a: value reported from (1.). b: value reported from (3).

[7] = molecular target: T4, COX-1 (Homo sapiens, UniProt P23219); assay: Inhibition of COX-1 oxidation of arachidonic acid (Example 6); assay type: biochemical
Procedure: as §2

[8] = Microsomal stability; settings: % of unmodified compound remaining after reaction
[9] = molecular target: hemoglobin (Homo sapiens, UniProt P68871+P69905); assay: Inhibition of hemoglobin-catalyzed lipid peroxidation; assay type: biochemical; settings: read-out: IC50 for hemoglobin (hemoprotein-catalyzed lipid peroxidation)
[10] = test system: rat model of rhabdomyolysis; assay: Rat model of rhabdomyolysis (renal failure from myoglobin-catalyzed lipid peroxidation); assay type: in vivo; settings: dose that produced plasma levels in the therapeutic range for humans
[11] = molecular target: T4, COX-1; settings: oxidation of arachidonic acid, Table 2, footnote b; read-out: COX-1 IC50 (μM ± SEM), value reported from (3); cited from earlier work
[12] = bicyclic compounds, structure table, read-out: Oxidation of AA by Mb IC50
[13] = oxidation of arachidonic acid, Table 2, read-out: Mb IC50 (μM ± SEM)
[14] = bicyclic compounds, structure table, read-out: Oxidation of AA by COX-1 IC50
[15] = oxidation of arachidonic acid, Table 2, read-out: COX-1 IC50 (μM ± SEM)

Sequence of PGHS-1 (COX-1) (P23219 24-599, species assumed): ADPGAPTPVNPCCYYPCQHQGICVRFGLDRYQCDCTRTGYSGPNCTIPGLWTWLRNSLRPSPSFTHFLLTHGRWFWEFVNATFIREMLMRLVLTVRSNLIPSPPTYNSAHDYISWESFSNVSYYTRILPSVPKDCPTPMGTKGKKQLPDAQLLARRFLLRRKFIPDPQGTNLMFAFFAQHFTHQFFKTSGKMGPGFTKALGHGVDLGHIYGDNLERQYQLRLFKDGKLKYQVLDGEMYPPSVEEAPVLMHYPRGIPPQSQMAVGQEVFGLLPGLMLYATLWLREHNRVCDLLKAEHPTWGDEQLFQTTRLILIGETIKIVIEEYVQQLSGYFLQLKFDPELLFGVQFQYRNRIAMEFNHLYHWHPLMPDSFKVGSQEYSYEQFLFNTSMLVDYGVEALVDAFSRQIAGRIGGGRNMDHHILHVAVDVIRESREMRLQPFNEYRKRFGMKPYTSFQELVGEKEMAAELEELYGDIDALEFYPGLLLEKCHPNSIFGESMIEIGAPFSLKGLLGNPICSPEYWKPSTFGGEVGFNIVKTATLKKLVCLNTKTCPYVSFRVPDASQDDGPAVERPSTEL
T4 sequence (P23219 24-599, species assumed): as above
Sequence of hemoglobin (P69905 2-142 limits assumed): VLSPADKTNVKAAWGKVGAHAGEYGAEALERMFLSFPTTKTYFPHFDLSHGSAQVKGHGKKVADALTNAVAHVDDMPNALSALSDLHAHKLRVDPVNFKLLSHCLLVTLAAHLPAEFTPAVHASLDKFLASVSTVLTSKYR
Sequence of hemoglobin (P68871 2-147 limits assumed): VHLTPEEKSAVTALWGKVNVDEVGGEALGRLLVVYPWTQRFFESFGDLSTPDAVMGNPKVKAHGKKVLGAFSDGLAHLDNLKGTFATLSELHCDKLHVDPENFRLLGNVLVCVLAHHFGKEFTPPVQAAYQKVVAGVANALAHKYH

| IC50 [6, 12] [µM] | IC50 [6, 13] [µM] | IC50 [7, 14] [µM] | IC50 [7, 15] [µM] | Microsomal stability % left [8] [%] | Compound | EC50 [5] [µM] | further results |
| --- | --- | --- | --- | --- | --- | --- | --- |
|  |  |  |  |  | 2-(dimethylamino)pyrimidin-5-ol [DM-Pym] |  | times more potent in reducing ferryl myoglobin than acetaminophen ([1]; relative to acetaminophen): 14 times; times more potent as an inhibitor of PGHS-1 than acetaminophen ([2]; relative to acetaminophen): 10 times; times more potent as an inhibitor of PGHS-2 than acetaminophen ([3]; relative to acetaminophen): 10 times; cytotoxicity in HepG2 cell line stimulated with ethanol [4]: not cytotoxic |
| 1.15 ± 0.3 | 1.2 ± 0.1 | 451 | 451 ± 35 | 158 ± 33 | O=C1NCc2cc(O)cnc2N1 [Analog 12] | 4760 ± 36 |  |
| 5.34 ± 0.1 | 5.3 ± 0.1 | 198 ± 50.1 | 198 ± 25 | 97 ± 3 | Cc1nc2c(c(C)c1O)COC(=O)N2 [Analog 14] | > 5000 |  |
| 2.29 ± 0.6 | 2.3 ± 0.4 | > 1000 | > 1000 | 87 ± 7 | Cc1nc2c(c(C)c1O)CNC(=O)N2 [Analog 13] | 2960 ± 284 | inhibition of COX-1, in words ([7]; at concentrations up to 1 mM): not able to significantly inhibit |
|  |  |  |  |  | CN(C)c1ncc(O)cn1 [DM-Pym, 2-(dimethylamino)pyrimidin-5-ol] |  | potency in reducing ferryl myoglobin, in words ([1]; compared with acetaminophen): remarkably more potent than acetaminophen; IC50 [2]: 21 µM; inhibition of PGHS-2 (COX-2), in words [3]: equally effective; cytotoxicity in HepG2 cell line stimulated with ethanol [4]: does not cause cytotoxicity |
|  |  |  |  |  | CC(=O)Nc1ccc(O)cc1 [ApAP, acetaminophen] | 594 ± 147 | IC50 [9]: 15 µM; lipid peroxidation in rhabdomyolysis model ([10]; listed as Acetaminophen): blocked; renal failure in rhabdomyolysis model ([10]; listed as Acetaminophen): prevented; lipid peroxidation in rhabdomyolysis model ([10]; listed as acetaminophen): blocks; renal failure in rhabdomyolysis model ([10]; listed as acetaminophen): blocks; IC50 [2]: 250 µM; IC50 [11]: 372 µM |
|  |  |  |  |  | CN(C)c1ccc(O)cn1 [DM-Pyr, 6-(dimethylamino)pyridin-3-ol] |  | inhibition of PGHS-2 (COX-2), in words [3]: only a weak inhibitor |
